This passage reports TGI and GI50 results from PubChem BioAssay (NCI).

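Test compounds were applied to cells in 96-well plates for 48 hours at 5 doses. Here, GI50 denotes the concentration required for 50% inhibition of growth. Definition used: TGI = concentration required for complete inhibition of growth.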

Some test systems named below: 786-0 renal; OVCAR-5 ovarian; MOLT-4 leukemia; KM12 colon; NCI-H522 lung; CCRF-CEM leukemia; SK-OV-3 ovarian; SF-268 CNS; M14 melanoma; U251 CNS; ACHN renal; SF-539 CNS; HOP-92 NSCLC.
Experiment in all cases: inhibition of tumour cell growth, NCI panel, 48 h

With `COc1cccc(-c2cc(=O)c3c(C)ccnc3[nH]2)c1`, the TGI is above 100 µM in the test on 786-0 renal; above 100 µM with OVCAR-5 ovarian; above 100 µM in the test with MOLT-4 leukemia; 1.49 µM in the test on KM12 colon; 0.226 µM in the test with NCI-H522 lung; 0.218 µM with CCRF-CEM leukemia. The TGI in the test on SK-OV-3 ovarian, with SF-268 CNS, in the test on M14 melanoma, in the test on U251 CNS and with ACHN renal was above 100 µM in each case.

Take `COC(=O)/C=c1/c2ccccc2n2nc3ccccc3c12`: the TGI in the test with 786-0 renal was above 100 µM; with OVCAR-5 ovarian it was above 100 µM; with MOLT-4 leukemia, 35.3 µM; in the test with KM12 colon it was above 100 µM; in the test on NCI-H522 lung, above 100 µM; in the test on SF-539 CNS, above 100 µM. Moreover, the TGI is above 100 µM in the test on CCRF-CEM leukemia; 61.3 µM in the test with SK-OV-3 ovarian; above 100 µM with SF-268 CNS; above 100 µM with M14 melanoma; above 100 µM in the test with U251 CNS; above 100 µM with ACHN renal.

Turning to `CCCCOC(=O)C(O)Cc1ccoc1` (stereo not drawn), the TGI with 786-0 renal, in the test on OVCAR-5 ovarian, with MOLT-4 leukemia, in the test on KM12 colon, with NCI-H522 lung and with SF-539 CNS was above 100 µM each time. Also, the TGI in the test with CCRF-CEM leukemia, in the test with SK-OV-3 ovarian, with SF-268 CNS, with M14 melanoma, with U251 CNS and in the test with ACHN renal was above 100 µM each time.

Turning to `CC(=O)OC1c2ccccc2CCCCCCC12OCCO2` (stereo not drawn), the TGI with 786-0 renal, in the test on OVCAR-5 ovarian, in the test on MOLT-4 leukemia, with KM12 colon, with NCI-H522 lung and in the test with SF-539 CNS was above 100 µM in each case. In addition, the TGI in the test with CCRF-CEM leukemia, in the test with SK-OV-3 ovarian, in the test on SF-268 CNS, in the test with M14 melanoma, in the test on U251 CNS and with ACHN renal was above 100 µM in each case.

For the compound `O=c1oc2ccccc2n1CCN1CCCCC1`, the TGI in the test with 786-0 renal, in the test on OVCAR-5 ovarian, with MOLT-4 leukemia, in the test with KM12 colon, with SF-539 CNS and with CCRF-CEM leukemia was above 100 µM throughout. The TGI in the test on SK-OV-3 ovarian, with SF-268 CNS, in the test with M14 melanoma, in the test on U251 CNS and in the test on ACHN renal was above 100 µM in each case.

On to `CNC(=O)c1[nH]cnc1/N=N/N(C)N`, for which the TGI in the test with 786-0 renal, with OVCAR-5 ovarian, in the test on MOLT-4 leukemia, in the test with KM12 colon, in the test on NCI-H522 lung and in the test with SF-539 CNS was above 100 µM in each case. Further, the TGI in the test with SK-OV-3 ovarian, in the test with SF-268 CNS, in the test with M14 melanoma and in the test on U251 CNS was above 100 µM in each case.

With `Cc1nnc2n1-c1ccccc1C(=S)N1CSCC21` (stereo not drawn), the TGI with 786-0 renal, with OVCAR-5 ovarian, in the test on MOLT-4 leukemia, in the test with KM12 colon, with NCI-H522 lung and in the test with CCRF-CEM leukemia was above 100 µM each time. The TGI in the test on SK-OV-3 ovarian, in the test with SF-268 CNS, with M14 melanoma, in the test on U251 CNS and in the test with ACHN renal was above 100 µM each time.

Turning to `O=c1[nH]nc(Cc2ccccc2)n1Nc1ccccc1`, the TGI in the test on 786-0 renal, in the test on OVCAR-5 ovarian, in the test with MOLT-4 leukemia, in the test on KM12 colon, in the test with NCI-H522 lung and in the test on SF-539 CNS was above 100 µM throughout. In addition, the TGI with CCRF-CEM leukemia, in the test with SF-268 CNS, in the test on U251 CNS and in the test on ACHN renal was above 100 µM each time.

For `NC(=O)N1N=C2c3ccccc3SC[C@H]2[C@@H]1c1ccccc1`, the TGI with 786-0 renal was above 100 µM; with OVCAR-5 ovarian, 60.2 µM; with MOLT-4 leukemia, 77.4 µM; in the test on CCRF-CEM leukemia, 70.7 µM; in the test on SF-268 CNS it was above 100 µM; with U251 CNS, 50.4 µM. Moreover, the TGI with ACHN renal was above 100 µM.

On to `CC1(C)CC(=O)c2c(nc3ccc4ccccc4c3c2-c2ccc(NC(=O)CCC(=O)Nc3ccc(-c4c5c(nc6ccc7ccccc7c46)CC(C)(C)CC5=O)cc3)cc2)C1`, for which the TGI in the test with 786-0 renal, with OVCAR-5 ovarian, with MOLT-4 leukemia, in the test with KM12 colon, in the test on NCI-H522 lung and in the test with SF-539 CNS was above 100 µM throughout. The TGI with CCRF-CEM leukemia, in the test on SK-OV-3 ovarian, in the test with SF-268 CNS, in the test on M14 melanoma, in the test on U251 CNS and in the test on ACHN renal was above 100 µM in each case.

Consider `Cc1cccc(NC(=S)Nc2ccccc2Cl)n1`, for which the TGI is above 100 µM with 786-0 renal; above 100 µM in the test with OVCAR-5 ovarian; above 100 µM in the test on MOLT-4 leukemia; 79.4 µM with KM12 colon; above 100 µM in the test with SF-539 CNS; above 100 µM in the test with CCRF-CEM leukemia. For the same compound, the TGI in the test on SK-OV-3 ovarian is 51.8 µM; with SF-268 CNS, 62 µM; with M14 melanoma, above 100 µM; in the test on U251 CNS, above 100 µM.

For `CCC1C(c2cc(OC)c(OC)c(OC)c2)c2cc3c(cc2OC1N1CCOCC1)OCO3` (stereo not drawn), the TGI in the test on 786-0 renal is 28.8 µM; in the test on OVCAR-5 ovarian, 15.6 µM; in the test with NCI-H522 lung, 21.8 µM; in the test on SK-OV-3 ovarian, 23.4 µM; in the test on SF-268 CNS, 41.5 µM; with M14 melanoma it was 23.7 µM. In addition, the figures for the TGI with HOP-92 NSCLC and with ACHN renal were 41 µM and 16.1 µM, respectively.

Take `COC(=O)c1csc(-c2nc(CCNC(=O)OC(C)(C)C)sc2Br)n1`: the TGI in the test with 786-0 renal, in the test with OVCAR-5 ovarian, in the test with MOLT-4 leukemia, with KM12 colon, in the test with SF-539 CNS and in the test with CCRF-CEM leukemia was above 100 µM throughout. Moreover, the TGI in the test with SK-OV-3 ovarian, in the test with SF-268 CNS, in the test on M14 melanoma, in the test on U251 CNS and with ACHN renal was above 100 µM throughout.

Consider `CCN(CC)C(=S)SS(=O)(=O)c1ccc([N+](=O)[O-])cc1`, for which the TGI with 786-0 renal is 32.4 µM; in the test with OVCAR-5 ovarian it was above 100 µM; in the test on KM12 colon it was 24.5 µM; in the test with SF-539 CNS, 40 µM; with SK-OV-3 ovarian, above 100 µM; with SF-268 CNS it was above 100 µM. Also, the TGI is 28.6 µM in the test with M14 melanoma, 36.7 µM in the test with U251 CNS and above 100 µM with ACHN renal. Besides, the GI50 was 11.1 µM in the test with KM12 colon, above 100 µM with SF-268 CNS, 14.9 µM in the test on M14 melanoma and 36.5 µM in the test with ACHN renal.

`CCOC(=O)C(NC(=O)Nc1ccc(Cl)c(Cl)c1)C(F)(F)F` (stereo not drawn): the TGI in the test on 786-0 renal, in the test with OVCAR-5 ovarian, in the test with MOLT-4 leukemia, in the test with SF-539 CNS, in the test on CCRF-CEM leukemia and with SK-OV-3 ovarian was above 100 µM throughout. Further, the TGI in the test on SF-268 CNS, in the test on M14 melanoma, in the test on U251 CNS and in the test with ACHN renal was above 100 µM throughout.

Regarding `N/C(=N/n1c(=S)[nH]c2ccccc2c1=O)Nn1c(=S)[nH]c2ccccc2c1=O`, the TGI with 786-0 renal is 34.2 µM; with OVCAR-5 ovarian, above 100 µM; in the test on MOLT-4 leukemia it was 31 µM; with KM12 colon, above 100 µM; in the test with NCI-H522 lung, 30 µM; with SF-539 CNS it was 56.2 µM. For the same compound, the TGI with CCRF-CEM leukemia is 48.2 µM; in the test on SK-OV-3 ovarian, above 100 µM; with SF-268 CNS it was 56.8 µM; in the test on M14 melanoma, 23.8 µM; with U251 CNS, 72.3 µM; with ACHN renal, above 100 µM.

As to `CN1CN(c2ccccc2)C2(CCN(CCc3csc4ccccc34)CC2)C1=O`, the TGI was found to be 30.5 µM in the test on 786-0 renal; 25.3 µM with OVCAR-5 ovarian; 41.9 µM with MOLT-4 leukemia; 25.9 µM in the test on KM12 colon; 34.4 µM in the test on NCI-H522 lung; 23 µM in the test with SF-539 CNS. Also, the TGI in the test with CCRF-CEM leukemia is 46.6 µM; with SK-OV-3 ovarian, 76.9 µM; in the test on SF-268 CNS, above 100 µM; in the test with M14 melanoma it was 38.4 µM; in the test on U251 CNS, 29.8 µM.

`CC(=O)OCC1=C(C)C(OC(=O)C(OC(C)=O)[C@@H](NC(=O)c2ccccc2)c2ccccc2)CCC1(C)C` (stereo partly drawn): the TGI in the test on 786-0 renal, in the test on OVCAR-5 ovarian, with MOLT-4 leukemia, with KM12 colon, with SF-539 CNS and in the test with CCRF-CEM leukemia was above 100 µM in each case. The TGI in the test on SK-OV-3 ovarian, with SF-268 CNS, in the test on U251 CNS and in the test on ACHN renal was above 100 µM each time.

Turning to `CC1C[C@]2(C)C(=O)N(c3ccccc3)C(=N)[C@@H]2N(C)c2ccccc21` (stereo partly drawn), the TGI with 786-0 renal, in the test with OVCAR-5 ovarian, in the test on MOLT-4 leukemia, in the test with KM12 colon, in the test with NCI-H522 lung and with SF-539 CNS was above 100 µM in each case. The TGI in the test with CCRF-CEM leukemia, in the test with SF-268 CNS, in the test on M14 melanoma and in the test with ACHN renal was above 100 µM throughout.
